From ChEMBL document CHEMBL1201862, “PubChem BioAssay data set” (2004)
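96-well plates; 48 h exposure; 5 concentrations. Endpoints by linear interpolation between flanking doses. Not reached: highest tested concentration assigned. GI50 = concentration required for 50% inhibition of growth.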 Calls of active or inactive are those of the source. Rule as the data show it: active = GI50 up to about 1.1 µM and inactive = higher.

Assays:
Assay in all cases: growth of human tumour cells (NCI), 48 h
TK-10 = test system: TK-10
OVCAR-3 = test system: OVCAR-3
NCI-H522 = test system: NCI-H522
UACC-257 = test system: UACC-257
SNB-78 = test system: SNB-78
HL-60 = test system: HL-60
LOX IMVI = test system: LOX IMVI
A549 = test system: A549
SF-295 = test system: SF-295
DLD-1 = test system: DLD-1
SK-MEL-2 = test system: SK-MEL-2
HT-29 = test system: HT-29
NCI-H23 = test system: NCI-H23
SK-MEL-5 = test system: SK-MEL-5
M19-MEL = test system: M19-MEL
SN12C = test system: SN12C
K562 = test system: K562
DMS-273 = test system: DMS-273
OVCAR-8 = test system: OVCAR-8
HCT-15 = test system: HCT-15
SNB-19 = test system: SNB-19
LXFL 529 = test system: LXFL 529
DMS-114 = test system: DMS-114
NCI-H460 = test system: NCI-H460
CCRF-CEM = test system: CCRF-CEM
MOLT-4 = test system: MOLT-4
XF498 = test system: XF498
HCT-116 = test system: HCT-116
SNB-75 = test system: SNB-75
786-0 = test system: 786-0
NCI-H226 = test system: NCI-H226
HOP-18 = test system: HOP-18
SF-268 = test system: SF-268
M14 = test system: M14
UACC-62 = test system: UACC-62
IGROV-1 = test system: IGROV-1
SK-OV-3 = test system: SK-OV-3
SF-539 = test system: SF-539
SK-MEL-28 = test system: SK-MEL-28
ACHN = test system: ACHN
OVCAR-4 = test system: OVCAR-4
Malme-3M = test system: Malme-3M
KM12 = test system: KM12
RXF 393 = test system: RXF 393
RPMI-8226 = test system: RPMI-8226
UO-31 = test system: UO-31
HCC 2998 = test system: HCC 2998
OVCAR-5 = test system: OVCAR-5
U-251 = test system: U-251
CAKI-1 = test system: CAKI-1
EKVX = test system: EKVX
KM-20L2 = test system: KM-20L2
SW-620 = test system: SW-620
HOP-92 = test system: HOP-92
HOP-62 = test system: HOP-62
A498 = test system: A498
COLO 205 = test system: COLO 205

`COP12(OC)NC(=O)OC1(C(F)(F)F)c1ccccc1O2` (stereo unspecified) was tested, and the GI50 (TK-10) was > 100 µM (inactive), the GI50 (OVCAR-3) was > 100 µM (inactive) and the GI50 (NCI-H522) was > 100 µM (inactive). For the same molecule, the GI50 (UACC-257) was > 100 µM (inactive), the GI50 (SNB-78) was > 100 µM (inactive) and the GI50 (HL-60) was > 100 µM (inactive). The GI50 (LOX IMVI) was > 100 µM (inactive), the GI50 (A549) was > 100 µM (inactive) and the GI50 (SF-295) was > 100 µM (inactive). For the same molecule, the GI50 (DLD-1) was > 100 µM (inactive), the GI50 (SK-MEL-2) was > 100 µM (inactive) and the GI50 (HT-29) was > 100 µM (inactive). For the same molecule, the GI50 (NCI-H23) was > 100 µM (inactive), the GI50 (SK-MEL-5) was > 100 µM (inactive) and the GI50 (M19-MEL) was > 100 µM (inactive). For the same molecule, the GI50 (SN12C) was > 100 µM (inactive), the GI50 (K562) was > 100 µM (inactive) and the GI50 (DMS-273) was > 100 µM (inactive). For the same molecule, the GI50 (OVCAR-8) was > 100 µM (inactive), the GI50 (HCT-15) was > 100 µM and the GI50 (SNB-19) was > 100 µM (inactive). The GI50 (LXFL 529) was > 100 µM (inactive), the GI50 (DMS-114) was > 100 µM (inactive) and the GI50 (NCI-H460) was > 100 µM (inactive). The GI50 (CCRF-CEM) was > 100 µM (inactive), the GI50 (MOLT-4) was > 100 µM (inactive) and the GI50 (XF498) was > 100 µM (inactive). The GI50 (HCT-116) was > 100 µM (inactive), the GI50 (SNB-75) was 44.9 µM (inactive) and the GI50 (786-0) was > 100 µM (inactive). The GI50 (NCI-H226) was > 100 µM (inactive), the GI50 (HOP-18) was 52.7 µM (inactive) and the GI50 (SF-268) was > 100 µM (inactive). The GI50 (M14) was > 100 µM (inactive), the GI50 (UACC-62) was > 100 µM (inactive) and the GI50 (IGROV-1) was > 100 µM (inactive). The GI50 (SK-OV-3) was > 100 µM (inactive), the GI50 (SF-539) was > 100 µM (inactive) and the GI50 (SK-MEL-28) was > 100 µM (inactive). For the same molecule, the GI50 (ACHN) was > 100 µM (inactive), the GI50 (OVCAR-4) was > 100 µM (inactive) and the GI50 (Malme-3M) was > 100 µM (inactive). For the same molecule, the GI50 (KM12) was > 100 µM (inactive) and the GI50 (RXF 393) was > 100 µM (inactive).

`CN1Nc2ccccc2CC1=O` was tested, and the GI50 (TK-10) was > 100 µM (inactive), the GI50 (OVCAR-3) was > 100 µM (inactive) and the GI50 (RPMI-8226) was > 100 µM (inactive). The GI50 (UACC-257) was > 100 µM (inactive), the GI50 (SNB-78) was > 100 µM (inactive) and the GI50 (UO-31) was > 100 µM (inactive). The GI50 (LOX IMVI) was > 100 µM (inactive), the GI50 (HCC 2998) was > 100 µM (inactive) and the GI50 (A549) was > 100 µM (inactive). For the same molecule, the GI50 (SF-295) was > 100 µM (inactive), the GI50 (DLD-1) was > 100 µM (inactive) and the GI50 (SK-MEL-2) was > 100 µM (inactive). For the same molecule, the GI50 (HT-29) was > 100 µM (inactive), the GI50 (NCI-H23) was > 100 µM (inactive) and the GI50 (SK-MEL-5) was > 100 µM (inactive). For the same molecule, the GI50 (M19-MEL) was > 100 µM (inactive), the GI50 (SN12C) was > 100 µM (inactive) and the GI50 (K562) was > 100 µM (inactive). For the same molecule, the GI50 (DMS-273) was > 100 µM (inactive), the GI50 (OVCAR-5) was > 100 µM (inactive) and the GI50 (OVCAR-8) was > 100 µM (inactive). The GI50 (HCT-15) was > 100 µM, the GI50 (SNB-19) was > 100 µM (inactive) and the GI50 (DMS-114) was > 100 µM (inactive). For the same molecule, the GI50 (NCI-H460) was > 100 µM (inactive), the GI50 (CCRF-CEM) was > 100 µM (inactive) and the GI50 (XF498) was > 100 µM (inactive). For the same molecule, the GI50 (HCT-116) was > 100 µM (inactive), the GI50 (SNB-75) was > 100 µM (inactive) and the GI50 (U-251) was > 100 µM (inactive). The GI50 (786-0) was > 100 µM (inactive), the GI50 (CAKI-1) was > 100 µM (inactive) and the GI50 (NCI-H226) was > 100 µM (inactive). For the same molecule, the GI50 (HOP-18) was > 100 µM (inactive), the GI50 (SF-268) was > 100 µM (inactive) and the GI50 (EKVX) was > 100 µM (inactive). For the same molecule, the GI50 (M14) was > 100 µM (inactive), the GI50 (UACC-62) was > 100 µM (inactive) and the GI50 (IGROV-1) was > 100 µM (inactive). The GI50 (SK-OV-3) was > 100 µM (inactive), the GI50 (SF-539) was > 100 µM (inactive) and the GI50 (KM-20L2) was > 100 µM (inactive). The GI50 (SK-MEL-28) was > 100 µM (inactive), the GI50 (SW-620) was > 100 µM (inactive) and the GI50 (ACHN) was > 100 µM (inactive). The GI50 (HOP-92) was > 100 µM (inactive), the GI50 (HOP-62) was > 100 µM (inactive) and the GI50 (OVCAR-4) was > 100 µM (inactive). The GI50 (A498) was > 100 µM (inactive), the GI50 (Malme-3M) was > 100 µM (inactive) and the GI50 (KM12) was > 100 µM (inactive). The GI50 (COLO 205) was > 100 µM (inactive).
